Measurements reported in PubChem BioAssay (NCI).
Values joined by “and” are separate entries in the source; they are usually repeats but may differ in a detail not shown here. Identical values can stand only once.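 Exposure lasted 48 hours, with cells grown in 96-well plates and compounds tested at five concentrations. GI50 is the concentration that inhibits growth by half. TGI: total growth inhibition.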

What was measured:
Assay in all cases: inhibition of tumour cell growth, NCI panel, 48 h
[1] = tested on: 786-0 renal
[2] = tested on: IGROV1 ovarian
[3] = tested on: NCI-H226 lung
[4] = tested on: SNB-19 CNS
[5] = tested on: KM12 colon
[6] = tested on: T-47D breast
[7] = tested on: HL-60(TB) leukemia
[8] = tested on: HCT-116 colon
[9] = tested on: HOP-92 NSCLC
[10] = tested on: HS 578T breast
[11] = tested on: PC-3 prostate
[12] = tested on: OVCAR-5 ovarian
[13] = tested on: MDA-MB-435
[14] = tested on: A549 NSCLC
[15] = tested on: CAKI-1 renal
[16] = tested on: MCF7 breast
[17] = tested on: OVCAR-8 ovarian
[18] = tested on: LOX IMVI melanoma
[19] = tested on: CCRF-CEM leukemia
[20] = tested on: SR leukemia
[21] = tested on: HT29 colon
[22] = tested on: OVCAR-4 ovarian
[23] = tested on: COLO 205 colon
[24] = tested on: UACC-257 melanoma
[25] = tested on: SK-MEL-28 melanoma
[26] = tested on: MOLT-4 leukemia
[27] = tested on: NCI-H522 lung
[28] = tested on: UACC-62 melanoma
[29] = tested on: DU-145 prostate
[30] = tested on: MDA-MB-231 breast
[31] = tested on: SK-MEL-5 melanoma
[32] = tested on: K-562 leukemia
[33] = tested on: TK-10 renal
[34] = tested on: BT-549 breast
[35] = tested on: HCT-15 colon
[36] = tested on: HOP-62 NSCLC
[37] = tested on: SN12C renal
[38] = tested on: SW-620 colon
[39] = tested on: SK-OV-3 ovarian
[40] = tested on: NCI-H23 lung
[41] = tested on: SF-295 CNS
[42] = tested on: MALME-3M melanoma
[43] = tested on: UO-31 renal
[44] = tested on: NCI-H460 lung
[45] = tested on: ACHN renal
[46] = tested on: EKVX NSCLC
[47] = tested on: M14 melanoma
[48] = tested on: RXF 393 renal
[49] = tested on: RPMI-8226 leukemia
[50] = tested on: SF-268 CNS
[51] = tested on: U251 CNS
[52] = tested on: A498 renal
[53] = tested on: OVCAR-3 ovarian
[54] = tested on: SF-539 CNS
[55] = tested on: NCI/ADR-RES ovarian
[56] = tested on: SNB-75 CNS
[57] = tested on: HCC-2998 colon
[58] = tested on: SK-MEL-2 melanoma

Structure (SMILES): FC(F)(F)c1ccc(CNc2ccc(Cc3c[nH]c4ncc(Cl)cc34)cn2)cn1
- GI50 [1]: 5.33 µM and 4.19 µM
- TGI [1]: 19.5 µM and > 10 µM
- GI50 [2]: 12.2 µM and > 10 µM
- TGI [2]: 40.7 µM and > 10 µM
- GI50 [3]: 4.91 µM and 3.94 µM
- TGI [3]: 27.2 µM and > 10 µM
- GI50 [4]: 10.8 µM and > 10 µM
- TGI [4]: 37.2 µM and > 10 µM
- GI50 [5]: 3.53 µM and 3.56 µM
- TGI [5]: 15.3 µM and > 10 µM
- GI50 [6]: 4.36 µM and 4.5 µM
- TGI [6]: 28.3 µM and > 10 µM
- GI50 [7]: 16.5 µM and > 10 µM
- TGI [7]: 49.4 µM and > 10 µM
- GI50 [8]: 12.3 µM and > 10 µM
- TGI [8]: 27.4 µM and > 10 µM
- GI50 [9]: 9.46 µM and 3.77 µM
- TGI [9]: 28.6 µM and > 10 µM
- GI50 [10]: 3.33 µM and 2.55 µM
- TGI [10]: 32.2 µM and > 10 µM
- GI50 [11]: 9.65 µM and > 10 µM
- TGI [11]: 34 µM and > 10 µM
- GI50 [12]: 23 µM and > 10 µM
- TGI [12]: 50.8 µM and > 10 µM
- GI50 [13]: 5.92 µM and > 10 µM
- TGI [13]: 22.7 µM and > 10 µM
- GI50 [14]: 10.5 µM and > 10 µM
- TGI [14]: 32.2 µM and > 10 µM
- GI50 [15]: 10.3 µM and > 10 µM
- TGI [15]: 30.8 µM and > 10 µM
- GI50 [16]: 6.34 µM and > 10 µM
- TGI [16]: 33.6 µM and > 10 µM
- GI50 [17]: 5.34 µM and > 10 µM
- TGI [17]: 28.6 µM and > 10 µM
- GI50 [18]: 11.5 µM and > 10 µM
- TGI [18]: 26.3 µM and > 10 µM
- GI50 [19]: 13.9 µM and 6.85 µM
- TGI [19]: 70.6 µM and > 10 µM
- GI50 [20]: 6.13 µM and 6.63 µM
- TGI [20]: 42.2 µM and > 10 µM
- GI50 [21]: 4.89 µM and > 10 µM
- TGI [21]: 17.3 µM and > 10 µM
- GI50 [22]: 3.6 µM and 6.33 µM
- TGI [22]: 19.2 µM and > 10 µM
- GI50 [23]: 5.58 µM and > 10 µM
- TGI [23]: 20.6 µM and > 10 µM
- GI50 [24]: 11.5 µM and > 10 µM
- TGI [24]: 25.8 µM and > 10 µM
- GI50 [25]: 13.2 µM and > 10 µM
- TGI [25]: 30.2 µM and > 10 µM
- GI50 [26]: 4.02 µM and 3.28 µM
- TGI [26]: 21.9 µM and > 10 µM
- GI50 [27]: 10.5 µM and > 10 µM
- TGI [27]: 29.3 µM and > 10 µM
- GI50 [28]: 8.56 µM
- TGI [28]: 25 µM
- GI50 [29]: 12.4 µM and > 10 µM
- TGI [29]: 33.6 µM and > 10 µM
- GI50 [30]: 8.7 µM and > 10 µM
- TGI [30]: 26.1 µM and > 10 µM
- GI50 [31]: 5.49 µM and 4.3 µM
- TGI [31]: 19.2 µM and > 10 µM
- GI50 [32]: 7.27 µM and 8.71 µM
- TGI [32]: 44.8 µM and > 10 µM
- GI50 [33]: 13.5 µM and > 10 µM
- TGI [33]: 36.4 µM and > 10 µM
- GI50 [34]: 14.5 µM and > 10 µM
- TGI [34]: 34.4 µM and > 10 µM
- GI50 [35]: 10.1 µM and > 10 µM
- TGI [35]: 27.1 µM and > 10 µM
- GI50 [36]: 11.4 µM and > 10 µM
- TGI [36]: 29.4 µM and > 10 µM
- GI50 [37]: 13.9 µM and > 10 µM
- TGI [37]: 30.6 µM and > 10 µM
- GI50 [38]: 10.6 µM and > 10 µM
- TGI [38]: 26.8 µM and > 10 µM
- GI50 [39]: 8.8 µM and > 10 µM
- TGI [39]: 32.5 µM and > 10 µM
- GI50 [40]: 10.3 µM and > 10 µM
- TGI [40]: 32 µM and > 10 µM
- GI50 [41]: 4.83 µM and 5.24 µM
- TGI [41]: 24.4 µM and > 10 µM
- GI50 [42]: 12.3 µM and > 10 µM
- TGI [42]: 30.7 µM and > 10 µM
- GI50 [43]: 3.78 µM and 6.32 µM
- TGI [43]: 17.7 µM and > 10 µM
- GI50 [44]: 12.9 µM and > 10 µM
- TGI [44]: 30 µM and > 10 µM
- GI50 [45]: 13.2 µM and > 10 µM
- TGI [45]: 36 µM and > 10 µM
- GI50 [46]: 7.89 µM and > 10 µM
- TGI [46]: 43.5 µM and > 10 µM
- GI50 [47]: 4.62 µM and > 10 µM
- TGI [47]: 19.2 µM and > 10 µM
- GI50 [48]: 9.75 µM and > 10 µM
- TGI [48]: 25.8 µM and > 10 µM
- GI50 [49]: 5.76 µM and 5.99 µM
- TGI [49]: 44.2 µM and > 10 µM
- GI50 [50]: 6.25 µM and > 10 µM
- TGI [50]: 29.3 µM and > 10 µM
- GI50 [51]: 10.1 µM and > 10 µM
- TGI [51]: 24.8 µM and > 10 µM
- GI50 [52]: 2.08 µM and 4.41 µM
- TGI [52]: 14 µM and > 10 µM
- GI50 [53]: 14.4 µM and > 10 µM
- TGI [53]: 33.7 µM and > 10 µM
- GI50 [54]: 10.6 µM and 8.14 µM
- TGI [54]: 24.4 µM and > 10 µM
- GI50 [55]: 7.68 µM and > 10 µM
- TGI [55]: 38.7 µM and > 10 µM
- GI50 [56]: 2.2 µM and 2.48 µM
- TGI [56]: 13.6 µM and > 10 µM
- GI50 [57]: 12.5 µM and > 10 µM
- TGI [57]: 30.3 µM and > 10 µM
- GI50 [58]: 17.6 µM and > 10 µM
- TGI [58]: 37.2 µM and > 10 µM
